These compounds were tested against T1, Purified Lck (Upstate) (Homo sapiens, UniProt P06239) (assay: Assay for Lck Activity). Settings: Src substrate peptide-coated plate ELISA, 0.05 mM ATP, 30° C. for 60 minutes, anti-phosphotyrosine HRP detection.
T1 construct: purchased Upstate
Format: biochemical
Protocol: The Src substrate peptide (Upstate) was coated onto 96-well Maxisorp plates (Nunc). Plates were sealed and incubated at 4° C., for 16 hours, washed three times with TBST (20 mM Tris-HCl pH 7.5, 150 mM NaCl and 0.1% Tween-20). The plates were blocked with 0.1% BSA and washed three times with TBST. Purified Lck (Upstate) was incubated in 100 mM Tris-HCl pH 7.5, 125 mM MgCl2, 25 mM MnCl2, 2 mM EGTA, 0.25 mM Sodium Vanadate, 2 mM DTT, 0.05 mM ATP with or without inhibitors at 30° C. for 60 minutes and washed with TBST three times. For quantification of phosphorylated tyrosines, plates were incubated with anti-phosphotyrosine, HRP conjugate (4G10, Upstate) for 1 hour at ambient temperature and washed three times with TBST. Detection was carried out using a color reagent, TMB (KPL). Ten minute after TMB addition the OD at 450 nm was measured.

T1 sequence (P06239 whole entry, species assumed): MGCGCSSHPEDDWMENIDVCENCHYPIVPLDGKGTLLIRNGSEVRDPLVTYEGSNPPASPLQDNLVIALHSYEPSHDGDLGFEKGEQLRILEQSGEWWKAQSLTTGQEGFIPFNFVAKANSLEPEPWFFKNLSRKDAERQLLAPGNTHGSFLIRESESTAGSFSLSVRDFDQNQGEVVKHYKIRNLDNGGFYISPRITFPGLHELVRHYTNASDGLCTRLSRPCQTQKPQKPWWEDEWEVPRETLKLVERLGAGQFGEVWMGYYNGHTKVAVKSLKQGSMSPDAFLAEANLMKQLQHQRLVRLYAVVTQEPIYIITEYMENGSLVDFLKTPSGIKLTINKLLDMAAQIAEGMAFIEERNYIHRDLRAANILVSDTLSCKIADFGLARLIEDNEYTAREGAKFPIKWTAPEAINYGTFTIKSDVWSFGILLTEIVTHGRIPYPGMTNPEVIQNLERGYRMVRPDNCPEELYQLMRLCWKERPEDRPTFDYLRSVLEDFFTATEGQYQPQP

| Structure (SMILES) | IC50 [nM] |
| --- | --- |
| c1cc(-c2cnc3ccc(NC4CCOCC4)nn23)ccn1 [Example 16, 3-(4-pyridinyl)-N-(tetrahydro-2H-pyran-4-yl)imidazo[1,2-b]pyridazin-6-amine] | 460 |
| c1cc(-c2cnc3ccc(NC4CCCCC4)nn23)ccn1 [Example 44, N-Cyclohexyl-3-(4-pyridinyl)imidazo[1,2-b]pyridazin-6-amine] | 380 |
| c1ccc(Nc2ccc3ncc(-c4ccncc4)n3n2)cc1 [Example 47, N-Phenyl-3-(4-pyridinyl)imidazo[1,2-b]pyridazin-6-amine] | 350 |
| c1ccc(CNc2ccc3ncc(-c4ccncc4)n3n2)cc1 [Example 102, N-Benzyl-3-(4-pyridinyl)imidazo[1,2-b]pyridazin-6-amine] | 310 |
| c1cc(Nc2ccc3ncc(-c4ccncc4)n3n2)ccn1 [Example 106, N,3-Di-4-pyridinylimidazo[1,2-b]pyridazin-6-amine] | 410 |
| Oc1c(Cl)cc(-c2cnc3ccc(N[C@H]4CC[C@H](O)CC4)nn23)cc1Cl [Example 127, 2,6-dichloro-4-{6-[(trans-4-hydroxycyclohexyl)amino]imidazo[1,2-b]pyridazin-3-yl}phenol] | 81 |
| O[C@H]1CC[C@H](Nc2ccc3ncc(-c4ccnc(F)c4)n3n2)CC1 [Example 153, trans-4-{[3-(2-Fluoro-4-pyridinyl)imidazo[1,2-b]pyridazin-6-yl]amino}cyclohexanol] | 97 |
| c1cc(-c2cnc3ccc(NC45CC6CC(CC(C6)C4)C5)nn23)ccn1 [Example 249, N-1-Adamantyl-3-(4-pyridinyl)imidazo[1,2-b]pyridazin-6-amine] | 320 |

Reference: US20100216798A1, “FUSED HETEROCYCLES AS LCK INHIBITORS” (ASTELLAS PHARMA INC, priority 2005, published 2010)
